Experimental data as given in patent US4416884A, “Piperazinylbenzoheterocyclic compounds” (Otsuka Pharmaceutical Co., Ltd., priority 1978, dated 1983).
Converted amounts (≈) assume the structure as drawn. Read-outs that look alike come from different tables or passages of the source.

How the values were obtained:
Type in all cases: cell-based
[1] = tested on: Yersinia enterocolitica 0-3; experiment: antimicrobial activity, serial dilution method on agar plate
Summary of the method: (§1)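 Reported figure is the lowest compound level (mcg/ml) inhibiting growth on Heart Infusion agar in a serial plate dilution. Suspensions of 1×10^8 and 1×10^6 cells/ml served as inocula.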

[2] = tested on: Salmonella typhi 0-901 (NCTC 8393); experiment: as above; settings: Salmonella enterica, read-out: Minimum Inhibitory Concentration
Summary of the method: as §1

[3] = tested on: Escherichia Coli NIHJ; experiment: as above
Summary of the method: as §1

[4] = tested on: Enterobacter cloacae; experiment: as above
Summary of the method: as §1

[5] = tested on: Pseudomonas maltophilia IFO 12692; experiment: as above; settings: Stenotrophomonas maltophilia, IFO12692, read-out: Minimum Inhibitory Concentration
Summary of the method: as §1

[6] = tested on: Hafnia alvei IFO 3731; experiment: as above
Summary of the method: as §1

[7] = tested on: Corinebacterium diphteriae; experiment: as above
Summary of the method: as §1

[8] = tested on: Escherichia Coli NIHJ JC-2 (IFO 12734); experiment: as above; settings: Escherichia coli, read-out: Minimum Inhibitory Concentration
Summary of the method: as §1

[9] = tested on: Pseudomonas putida IFO 13696; experiment: as above
Summary of the method: as §1

[10] = tested on: Test Organism 16 (Pseudomonas maltophilia IFO 12692); experiment: influence of the addition of horse serum on the MIC; settings: Stenotrophomonas maltophilia
[11] = tested on: Aeromonas hydrophila IFO 12658; experiment: antimicrobial activity on bacteria which cause infectious diseases in fish
Description: (§2) The antimicrobial activity of the following test compounds on various test organisms listed below was determined by the serial dilution method on agar plate (Heart Infusion agar produced by Difco Co.) (see CHEMOTHERAPY 22, pp. 1126-1128 (1974)), and the minimum inhibitory concentrations (mcg/ml) obtained are shown in Table 1 below.
(§3) A sample of each test organism was prepared so that the population of the organism was 1×10^8 cells/ml (O.D. 660 mμ=0.07 to 0.16) and 1×10^6 cells/ml (which was obtained by diluting the above 1×10^8 cells/ml preparation).
(§4) In the same manner as above, the antimicrobial activity of the following compounds on various test organisms which cause infectious diseases in fish was determined.

[12] = tested on: Aeromonas salmonicida IFO 12718; experiment: as above
Description: as §2, §3, §4

[13] = tested on: Aeromonas hydrophila IFO 12981; experiment: as above
Description: as §2, §3, §4

[14] = tested on: Vibrio anguillarum IFO 13266; experiment: as above
Description: as §2, §3, §4

[15] = tested on: Vibrio anguillarum IFO 12710; experiment: as above
Description: as §2, §3, §4

[16] = tested on: Pseudomonas fluorescens IFO 12180; experiment: as above; settings: IFO12180, read-out: Minimum Inhibitory Concentration
Description: as §2, §3, §4

[17] = tested on: Aeromonas salmonicida IFO 12659; experiment: as above
Description: as §2, §3, §4

[18] = tested on: Pseudomonas fluorescens IFO 12568; experiment: as above
Description: as §2, §3, §4

[19] = tested on: Test Organism 21 (Bacillus subtilis PCI 219); experiment: influence of the addition of horse serum on the MIC
[20] = tested on: Test Organism 2 (Escherichia Coli NIHJ JC-2 (IFO 12734)); experiment: as above
[21] = tested on: Test Organism 17 (Pseudomonas putida IFO 13696); experiment: as above
[22] = tested on: Yersinia enterocolitica 0-5; experiment: antimicrobial activity, serial dilution method on agar plate
[23] = read-out: Minimum Inhibitory Concentration, inoculum 1 × 10^6 cells/ml
[24] = read-out: Minimum Inhibitory Concentration, inoculum 1 × 10^8 cells/ml
[25] = read-out: Minimum Inhibitory Concentration, horse serum 0%, inoculum 10^6
[26] = read-out: Minimum Inhibitory Concentration, horse serum 0%, inoculum 10^8
[27] = read-out: Minimum Inhibitory Concentration, horse serum 10%, inoculum 10^6
[28] = read-out: Minimum Inhibitory Concentration, horse serum 10%, inoculum 10^8
[29] = read-out: Minimum Inhibitory Concentration, horse serum 20%, inoculum 10^6
[30] = read-out: Minimum Inhibitory Concentration, horse serum 20%, inoculum 10^8
[31] = read-out: Minimum Inhibitory Concentration, horse serum 40%, inoculum 10^6
[32] = read-out: Minimum Inhibitory Concentration, horse serum 40%, inoculum 10^8

CC1Cc2c(N3CCNCC3)ccc3c(=O)c(C(=O)O)cn1c23 (centres unmarked) [C]
MIC ([1]; Yersinia enterocolitica, 03, read-out: Minimum Inhibitory Concentration, inoculum 1 × 10^6 cells/ml): 1.6 µg/mL (≈ 5.11 µM) | MIC ([1]; Yersinia enterocolitica, 03, read-out: Minimum Inhibitory Concentration, inoculum 1 × 10^8 cells/ml): 1.6 µg/mL (≈ 5.11 µM) | MIC ([2]; inoculum 1 × 10^6 cells/ml): 0.2 µg/mL (≈ 0.638 µM) | MIC ([2]; inoculum 1 × 10^8 cells/ml): 0.4 µg/mL (≈ 1.28 µM) | MIC [3, 23]: 0.4 µg/mL (≈ 1.28 µM) | MIC [3, 24]: 0.8 µg/mL (≈ 2.55 µM) | MIC [4, 23]: 0.4 µg/mL (≈ 1.28 µM) | MIC [4, 24]: 0.8 µg/mL (≈ 2.55 µM) | MIC [5]: 6.3 µg/mL (≈ 20.1 µM) | MIC ([6]; IFO3731, read-out: Minimum Inhibitory Concentration, inoculum 1 × 10^6 cells/ml): 0.8 µg/mL (≈ 2.55 µM) | MIC ([6]; IFO3731, read-out: Minimum Inhibitory Concentration, inoculum 1 × 10^8 cells/ml): 1.6 µg/mL (≈ 5.11 µM) | MIC [7, 23]: 6.3 µg/mL (≈ 20.1 µM) | MIC [7, 24]: 25 µg/mL (≈ 79.8 µM) | MIC [8]: 1.6 µg/mL (≈ 5.11 µM) | MIC ([9]; IFO13696, read-out: Minimum Inhibitory Concentration, inoculum 1 × 10^6 cells/ml): 3.1 µg/mL (≈ 9.89 µM) | MIC ([9]; IFO13696, read-out: Minimum Inhibitory Concentration, inoculum 1 × 10^8 cells/ml): 3.1 µg/mL (≈ 9.89 µM) | MIC ([10]; IFO12692, read-out: Minimum Inhibitory Concentration, horse serum 0%, inoculum 10^6): 1.6 µg/mL (≈ 5.11 µM) | MIC ([10]; IFO12692, read-out: Minimum Inhibitory Concentration, horse serum 0%, inoculum 10^8): 1.6 µg/mL (≈ 5.11 µM) | MIC ([10]; IFO12692, read-out: Minimum Inhibitory Concentration, horse serum 10%, inoculum 10^6): 1.6 µg/mL (≈ 5.11 µM) | MIC ([10]; IFO12692, read-out: Minimum Inhibitory Concentration, horse serum 10%, inoculum 10^8): 1.6 µg/mL (≈ 5.11 µM) | MIC ([10]; IFO12692, read-out: Minimum Inhibitory Concentration, horse serum 20%, inoculum 10^6): 0.4 µg/mL (≈ 1.28 µM) | MIC ([10]; IFO12692, read-out: Minimum Inhibitory Concentration, horse serum 20%, inoculum 10^8): 0.8 µg/mL (≈ 2.55 µM) | MIC ([10]; IFO12692, read-out: Minimum Inhibitory Concentration, horse serum 40%, inoculum 10^6): 0.4 µg/mL (≈ 1.28 µM) | MIC ([10]; IFO12692, read-out: Minimum Inhibitory Concentration, horse serum 40%, inoculum 10^8): 0.4 µg/mL (≈ 1.28 µM) | MIC ([11]; IFO12658, inoculum 10^6, read-out: Minimum Inhibitory Concentration): 0.2 µg/mL (≈ 0.638 µM) | MIC ([11]; IFO12658, inoculum 10^8, read-out: Minimum Inhibitory Concentration): 0.4 µg/mL (≈ 1.28 µM) | MIC ([12]; IFO12718, inoculum 10^6, read-out: Minimum Inhibitory Concentration): 0.4 µg/mL (≈ 1.28 µM) | MIC ([12]; IFO12718, inoculum 10^8, read-out: Minimum Inhibitory Concentration): 0.4 µg/mL (≈ 1.28 µM) | MIC ([13]; IFO12981, inoculum 10^6, read-out: Minimum Inhibitory Concentration): 0.2 µg/mL (≈ 0.638 µM) | MIC ([13]; IFO12981, inoculum 10^8, read-out: Minimum Inhibitory Concentration): 0.4 µg/mL (≈ 1.28 µM) | MIC ([14]; IFO13266, read-out: Minimum Inhibitory Concentration, inoculum 10^6): 0.2 µg/mL (≈ 0.638 µM) | MIC ([14]; IFO13266, read-out: Minimum Inhibitory Concentration, inoculum 10^8): 0.4 µg/mL (≈ 1.28 µM) | MIC ([15]; IFO12710, read-out: Minimum Inhibitory Concentration, inoculum 10^6): 1.6 µg/mL (≈ 5.11 µM) | MIC ([15]; IFO12710, read-out: Minimum Inhibitory Concentration, inoculum 10^8): 3.1 µg/mL (≈ 9.89 µM) | MIC [16]: 3.1 µg/mL (≈ 9.89 µM) | MIC ([17]; IFO12659, inoculum 10^6, read-out: Minimum Inhibitory Concentration): 0.2 µg/mL (≈ 0.638 µM) | MIC ([17]; IFO12659, inoculum 10^8, read-out: Minimum Inhibitory Concentration): 0.4 µg/mL (≈ 1.28 µM) | MIC ([18]; IFO12568, read-out: Minimum Inhibitory Concentration, inoculum 10^6): 25 µg/mL (≈ 79.8 µM) | MIC ([18]; IFO12568, read-out: Minimum Inhibitory Concentration, inoculum 10^8): 50 µg/mL (≈ 160 µM) | MIC [19, 25]: 1.6 µg/mL (≈ 5.11 µM) | MIC [19, 26]: 3.1 µg/mL (≈ 9.89 µM) | MIC [19, 27]: 1.6 µg/mL (≈ 5.11 µM) | MIC [19, 28]: 1.6 µg/mL (≈ 5.11 µM) | MIC [19, 29]: 1.6 µg/mL (≈ 5.11 µM) | MIC [19, 30]: 1.6 µg/mL (≈ 5.11 µM) | MIC [19, 31]: 0.4 µg/mL (≈ 1.28 µM) | MIC [19, 32]: 0.4 µg/mL (≈ 1.28 µM) | MIC [20, 25]: 1.6 µg/mL (≈ 5.11 µM) | MIC [20, 26]: 1.6 µg/mL (≈ 5.11 µM) | MIC [20, 27]: 1.6 µg/mL (≈ 5.11 µM) | MIC [20, 28]: 1.6 µg/mL (≈ 5.11 µM) | MIC [20, 29]: 1.6 µg/mL (≈ 5.11 µM) | MIC [20, 30]: 0.8 µg/mL (≈ 2.55 µM) | MIC [20, 31]: 0.4 µg/mL (≈ 1.28 µM) | MIC [20, 32]: 0.4 µg/mL (≈ 1.28 µM) | MIC ([21]; IFO13696, read-out: Minimum Inhibitory Concentration, horse serum 0%, inoculum 10^6): 0.4 µg/mL (≈ 1.28 µM) | MIC ([21]; IFO13696, read-out: Minimum Inhibitory Concentration, horse serum 0%, inoculum 10^8): 0.8 µg/mL (≈ 2.55 µM) | MIC ([21]; IFO13696, read-out: Minimum Inhibitory Concentration, horse serum 10%, inoculum 10^6): 0.4 µg/mL (≈ 1.28 µM) | MIC ([21]; IFO13696, read-out: Minimum Inhibitory Concentration, horse serum 10%, inoculum 10^8): 0.8 µg/mL (≈ 2.55 µM) | MIC ([21]; IFO13696, read-out: Minimum Inhibitory Concentration, horse serum 20%, inoculum 10^6): 0.4 µg/mL (≈ 1.28 µM) | MIC ([21]; IFO13696, read-out: Minimum Inhibitory Concentration, horse serum 20%, inoculum 10^8): 0.8 µg/mL (≈ 2.55 µM) | MIC ([21]; IFO13696, read-out: Minimum Inhibitory Concentration, horse serum 40%, inoculum 10^6): 0.4 µg/mL (≈ 1.28 µM) | MIC ([21]; IFO13696, read-out: Minimum Inhibitory Concentration, horse serum 40%, inoculum 10^8): 0.4 µg/mL (≈ 1.28 µM) | MIC ([22]; Yersinia enterocolitica, 05, read-out: Minimum Inhibitory Concentration, inoculum 1 × 10^6 cells/ml): 1.6 µg/mL (≈ 5.11 µM) | MIC ([22]; Yersinia enterocolitica, 05, read-out: Minimum Inhibitory Concentration, inoculum 1 × 10^8 cells/ml): 1.6 µg/mL (≈ 5.11 µM)
